Experimental data reported in ChEMBL document CHEMBL1131036, “Structure-based design, synthesis, and biological evaluation of irreversible human rhinovirus 3C protease inhibitors. 1. Michael acceptor structure-activity studies” (J Med Chem, 1998).

What was measured:
[1] = molecular target: T1, Human rhinovirus A protease (Human rhinovirus sp.) (UniProt Q4U254); test: Catalytic rate constant (Kobs/[I]) evaluated against human rhinovirus (HRV) serotype 14 3C Protease (3CP); details: Human rhinovirus B (HRV-14)
T1 sequence (whole entry): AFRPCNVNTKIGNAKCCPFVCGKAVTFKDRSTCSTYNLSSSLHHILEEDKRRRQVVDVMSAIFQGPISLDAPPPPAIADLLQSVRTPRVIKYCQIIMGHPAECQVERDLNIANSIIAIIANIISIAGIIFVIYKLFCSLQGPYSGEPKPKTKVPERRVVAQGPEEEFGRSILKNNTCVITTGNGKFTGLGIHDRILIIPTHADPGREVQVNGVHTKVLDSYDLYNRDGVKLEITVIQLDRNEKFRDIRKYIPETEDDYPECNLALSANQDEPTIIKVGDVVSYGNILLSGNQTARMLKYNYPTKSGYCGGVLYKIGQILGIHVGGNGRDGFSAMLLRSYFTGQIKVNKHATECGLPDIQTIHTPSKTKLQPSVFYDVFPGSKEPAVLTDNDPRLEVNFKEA

[2] = test system: HeLa; test: Formazan production in HRV-14 virus infected cells; type: functional, cell-based; details: Homo sapiens
[3] = test system: HeLa; test: Concentration of compound that decreased the percentage of formazan production in treated HRV-14 virus infected cells to that produced in uninfected cells; type: functional; details: Homo sapiens

SMILES | K obs / 1 [1] [M⁻¹ s⁻¹] | EC50 [2] [µM] | CC50 [3] [µM]
CC(C)C[C@H](NC(=O)OCc1ccccc1)C(=O)N[C@@H](Cc1ccccc1)C(=O)N[C@H](/C=C/C(=O)c1ccc(C#N)cc1)CCC(N)=O | 200000 | 50 | > 320
COc1ccc2c(c1)CCN2C(=O)/C=C/[C@H](CCC(N)=O)NC(=O)[C@H](Cc1ccccc1)NC(=O)[C@H](CC(C)C)NC(=O)OCc1ccccc1 | 3400 | > 320 | > 320
CC(C)C[C@H](NC(=O)OCc1ccccc1)C(=O)N[C@@H](Cc1ccccc1)C(=O)N[C@H](/C=C/C(=O)N1CCc2ccc(S(C)(=O)=O)cc21)CCC(N)=O | 12900 | > 320 | > 320
CC(C)C[C@H](NC(=O)OCc1ccccc1)C(=O)N[C@@H](Cc1ccccc1)C(=O)N[C@H](/C=C/S(=O)(=O)c1ccccc1)CCC(N)=O | 270 | 200 | > 320
CC(C)C[C@H](NC(=O)OCc1ccccc1)C(=O)N[C@@H](Cc1ccccc1)C(=O)N[C@H](/C=C/c1ccno1)CCC(N)=O | 600 | > 320 | > 320
CC(C)C[C@H](NC(=O)OCc1ccccc1)C(=O)N[C@@H](Cc1ccccc1)C(=O)N[C@H](/C=C/C(=O)N(C)C)CCC(N)=O | 1300 | 56 | > 100
CC(C)C[C@H](NC(=O)OCc1ccccc1)C(=O)N[C@@H](Cc1ccccc1)C(=O)N[C@H](/C=C/S(C)(=O)=O)CCC(N)=O | 160 | > 320 | > 320
CC(C)C[C@H](NC(=O)OCc1ccccc1)C(=O)N[C@@H](Cc1ccccc1)C(=O)N[C@H](/C=C/C(=O)O)CCC(N)=O | 30 | > 100 | > 320
CC(C)C[C@H](NC(=O)OCc1ccccc1)C(=O)N[C@@H](Cc1ccccc1)C(=O)N[C@H](/C=C/C(=O)n1ccc2ccccc21)CCC(N)=O | 53000 | 1.8 | 29
CC(C)C[C@H](NC(=O)OCc1ccccc1)C(=O)N[C@@H](Cc1ccccc1)C(=O)N[C@H](/C=C/C(=O)c1ccccc1)CCC(N)=O | 500000 | 4 | 16
CC(C)C[C@H](NC(=O)OCc1ccccc1)C(=O)N[C@@H](Cc1ccccc1)C(=O)N[C@H](/C=C/C(=O)N1CCCC1)CCC(N)=O | 2100 | 22 | > 100
CC(C)C[C@H](NC(=O)OCc1ccccc1)C(=O)N[C@@H](Cc1ccccc1)C(=O)N[C@H](/C=C/C(=O)N(C)O)CCC(N)=O | 1800 | 42 | 42
CC(C)C[C@H](NC(=O)OCc1ccccc1)C(=O)N[C@@H](Cc1ccccc1)C(=O)N[C@H](/C=C/c1cocn1)CCC(N)=O | 0 | > 100 | > 100
CCOC(=O)/C(F)=C/[C@H](CCC(N)=O)NC(=O)[C@H](Cc1ccccc1)NC(=O)[C@H](CC(C)C)NC(=O)OCc1ccccc1 | 60 | > 320 | > 320
CC(C)C[C@H](NC(=O)OCc1ccccc1)C(=O)N[C@@H](Cc1ccccc1)C(=O)N[C@H](/C=C/C(=O)N1CCc2cccc(Cl)c21)CCC(N)=O | 5400 | 56 | > 320
CC(C)C[C@H](NC(=O)OCc1ccccc1)C(=O)N[C@@H](Cc1ccccc1)C(=O)N[C@H](/C=C/c1ccccn1)CCC(N)=O | 120 | > 100 | > 100
CC(C)C[C@H](NC(=O)OCc1ccccc1)C(=O)N[C@@H](Cc1ccccc1)C(=O)N[C@H](/C=C/C(=O)n1cccc1)CCC(N)=O | 400000 | 1.4 | 6.3
CON1CC/C(=C\[C@H](CCC(N)=O)NC(=O)[C@H](Cc2ccccc2)NC(=O)[C@H](CC(C)C)NC(=O)OCc2ccccc2)C1=O | 800 | 18 | > 100
CC(C)C[C@H](NC(=O)OCc1ccccc1)C(=O)N[C@@H](Cc1ccccc1)C(=O)N[C@H](/C=C/C(=O)N1CCc2cccc(S(C)(=O)=O)c21)CCC(N)=O | < 1000 | > 320 | > 320
CC(C)C[C@H](NC(=O)OCc1ccccc1)C(=O)N[C@@H](Cc1ccccc1)C(=O)N[C@H](/C=C/C(=O)N1CCCc2ccccc21)CCC(N)=O | 1000 | 126 | > 320
CC(C)C[C@H](NC(=O)OCc1ccccc1)C(=O)N[C@@H](Cc1ccccc1)C(=O)N[C@H](/C=C/C(=O)OCC(C)(C)C)CCC(N)=O | 9800 | 0.5 | > 100
CC(C)C[C@H](NC(=O)OCc1ccccc1)C(=O)N[C@@H](Cc1ccccc1)C(=O)N[C@H](/C=C/C(=O)c1ccc([N+](=O)[O-])cc1)CCC(N)=O | 310000 | 32 | 32

SMILES | K obs / 1 [1] [M⁻¹ s⁻¹] | EC50 [2] [µM] | CC50 [3] [µM]
COC(=O)/C=C\[C@H](CCC(N)=O)NC(=O)[C@H](Cc1ccccc1)NC(=O)[C@H](CC(C)C)NC(=O)OCc1ccccc1 | 2400 | 3.2 | > 320
CO/N=C/C=C/[C@H](CCC(N)=O)NC(=O)[C@H](Cc1ccccc1)NC(=O)[C@H](CC(C)C)NC(=O)OCc1ccccc1 | 0 | 100 | > 320
CC(C)C[C@H](NC(=O)OCc1ccccc1)C(=O)N[C@@H](Cc1ccccc1)C(=O)N[C@H](/C=C/C(=O)C(C)(C)C)CCC(N)=O | 15000 | 1.7 | 5.6
CC(C)C[C@H](NC(=O)OCc1ccccc1)C(=O)N[C@@H](Cc1ccccc1)C(=O)N[C@H](/C=C/C(=O)Nc1ccccc1)CCC(N)=O | 200 | > 320 | > 320
CC(C)C[C@H](NC(=O)OCc1ccccc1)C(=O)N[C@@H](Cc1ccccc1)C(=O)N[C@H](/C=C1\CCCOC1=O)CCC(N)=O | – | 16 | > 100
CC(C)C[C@H](NC(=O)OCc1ccccc1)C(=O)N[C@@H](Cc1ccccc1)C(=O)N[C@H](/C=C/C(=O)N1CCc2ccc(S(=O)(=O)N3CCCC3)cc21)CCC(N)=O | 22700 | > 320 | > 320
CCN(CC)c1ccc(C(=O)/C=C/[C@H](CCC(N)=O)NC(=O)[C@H](Cc2ccccc2)NC(=O)[C@H](CC(C)C)NC(=O)OCc2ccccc2)cc1 | 4500 | > 25 | 25
CC(C)C[C@H](NC(=O)OCc1ccccc1)C(=O)N[C@@H](Cc1ccccc1)C(=O)N[C@H](/C=C/C(=O)N1CCc2cc(Br)ccc21)CCC(N)=O | 5800 | 47 | > 320
CC(C)C[C@H](NC(=O)OCc1ccccc1)C(=O)N[C@@H](Cc1ccccc1)C(=O)N[C@H](/C=C/C(=O)N1CCc2cc(F)ccc21)CCC(N)=O | 5400 | 11 | > 320
CC(C)C[C@H](NC(=O)OCc1ccccc1)C(=O)N[C@@H](Cc1ccccc1)C(=O)N[C@H](/C=C/C#N)CCC(N)=O | 0 | 18 | > 320
CC(C)C[C@H](NC(=O)OCc1ccccc1)C(=O)N[C@@H](Cc1ccccc1)C(=O)N[C@H](/C=C/C(=O)N1CCC(O)C1)CCC(N)=O (some centres undefined) | 1200 | > 320 | > 320
CC(C)C[C@H](NC(=O)OCc1ccccc1)C(=O)N[C@@H](Cc1ccccc1)C(=O)N[C@H](/C=C/C(=O)OC1CCCC1)CCC(N)=O | 14600 | 0.56 | > 100
COC(=O)N1CC/C(=C\[C@H](CCC(N)=O)NC(=O)[C@H](Cc2ccccc2)NC(=O)[C@H](CC(C)C)NC(=O)OCc2ccccc2)C1=O | 8400 | 28 | > 100
CC(C)C[C@H](NC(=O)OCc1ccccc1)C(=O)N[C@@H](Cc1ccccc1)C(=O)N[C@H](/C=C/C(=O)OCc1ccccc1)CCC(N)=O | 39400 | 3.2 | > 100
CC(C)C[C@H](NC(=O)OCc1ccccc1)C(=O)N[C@@H](Cc1ccccc1)C(=O)N[C@H](/C=C/C(=O)N1CCCO1)CCC(N)=O | 14000 | 45 | > 320
CC(C)C[C@H](NC(=O)OCc1ccccc1)C(=O)N[C@@H](Cc1ccccc1)C(=O)N[C@H](/C=C/C(=O)NC1CCCC1)CCC(N)=O | 250 | > 100 | > 320
CC(C)C[C@H](NC(=O)OCc1ccccc1)C(=O)N[C@@H](Cc1ccccc1)C(=O)N[C@H](/C=C/C(=O)N1CCCCO1)CCC(N)=O | 19000 | 16 | 100
CC(C)C[C@H](NC(=O)OCc1ccccc1)C(=O)N[C@@H](Cc1ccccc1)C(=O)N[C@H](/C=C/C(=O)N(C)c1ccccc1)CCC(N)=O | 580 | 158 | > 320
CC(C)C[C@H](NC(=O)OCc1ccccc1)C(=O)N[C@@H](Cc1ccccc1)C(=O)N[C@H](/C=C/C(=O)N1CCc2cc(Cl)ccc21)CCC(N)=O | 450 | 5.6 | 56
CCOP(=O)(/C=C/[C@H](CCC(N)=O)NC(=O)[C@H](Cc1ccccc1)NC(=O)[C@H](CC(C)C)NC(=O)OCc1ccccc1)OCC | 0 | > 320 | > 320
CSc1cccc2c1N(C(=O)/C=C/[C@H](CCC(N)=O)NC(=O)[C@H](Cc1ccccc1)NC(=O)[C@H](CC(C)C)NC(=O)OCc1ccccc1)CC2 | 300 | – | –
COc1ccc(C(=O)/C=C/[C@H](CCC(N)=O)NC(=O)[C@H](Cc2ccccc2)NC(=O)[C@H](CC(C)C)NC(=O)OCc2ccccc2)cc1 | 150000 | 22 | 100
